How the values were obtained:
[1] = system: foliar fungal diseases of plants; type: in vivo; set-up: key to disease control grading, […] (VINE): 4: no disease; 3: trace −5% of disease on untreated plants; key to disease control grading, PUCCINIA RECONDITA (WHEAT) / disease control grading, VENTURIA INAEQUALIS (APPLE) / disease control grading, CERCOSPORA ARACHIDICOLA (PEANUT) / disease control grading, PH[…] (TOMATO) / disease control grading, P[…] (RICE): 4: no disease; 3: trace −5% of disease on untreated plants; 6-25% of disease on untreated plants; 1: 26-59% of disease on untreated plants; 60-100% of disease on untreated plants; settings: applied to soil (roots) and foliage one or two days before inoculation; for disease control grading, CERCOSPORA ARACHIDICOLA (PEANUT): Cercospora arachidicola on peanut; for disease control grading, P[…] (RICE): P[…] on rice; for disease control grading, PH[…] (TOMATO): Ph[…] on tomato; for disease control grading, PUCCINIA RECONDITA (WHEAT): Puccinia recondita on wheat; for disease control grading, VENTURIA INAEQUALIS (APPLE): Venturia inaequalis on apple; for disease control grading, […] (VINE): […] on vine
Erysiphe graminis = assay: Foliar fungal disease test on Erysiphe graminis, plants inoculated 24 hours before treatment (Table V); type: in vivo; set-up: key: 4: no disease; 3: trace −5% of disease on untreated plants; 6-25% of disease on untreated plants; 1: 26-59% of disease on untreated plants; 60-100% of disease on untreated plants; settings: plants inoculated 24 hours before treatment

Row | SMILES | disease control grading, CERCOSPORA ARACHIDICOLA (PEANUT) [1] | disease control grading, P[…] (RICE) [1] | disease control grading, PH[…] (TOMATO) [1] | disease control grading, PUCCINIA RECONDITA (WHEAT) [1] | disease control grading, VENTURIA INAEQUALIS (APPLE) [1] | disease control grading, […] (VINE) [1] | disease control grading, ERYSIPHE GRAMINIS (BARLEY) (Erysiphe graminis)
1 | CO/C=C(/C(=O)OC)c1ccccc1COc1ccc(C#N)cc1 [38 (Table I)] | 4 | 0 (60-100% of disease on untreated plants) | 4 | 4 | 4 | 4 | 4
2 | CO/C=C(/C(=O)OC)c1ccccc1COc1cccc(N)c1 [34 (Table I)] | 0 (60-100% of disease on untreated plants) | 0 (60-100% of disease on untreated plants) | 4 | 3 (trace −5% of disease on untreated plants) | 3 (trace −5% of disease on untreated plants) | 4 | 0 (60-100% of disease on untreated plants)
3 | CO/C=C(/C(=O)OC)c1ccccc1COc1cccc(/N=C/c2ccccc2)c1 [180 (Table I)] | 4 | 2 (6-25% of disease on untreated plants) | 4 | 3 (trace −5% of disease on untreated plants) | 0 (60-100% of disease on untreated plants) | 4 | 0 (60-100% of disease on untreated plants)
4 | CO/C=C(/C(=O)OC)c1ccccc1COc1cccc(C(C)(C)C)c1 [29 (Table I)] | 4 | 4 | 4 | 4 | 4 | 4 | 2 (6-25% of disease on untreated plants)
5 | CO/C=C(/C(=O)OC)c1ccccc1COc1cccc(Oc2ccccc2OC)c1 [173 (Table I)] | 4 | 0 (60-100% of disease on untreated plants) | 4 | 4 | 4 | 4 | 3 (trace −5% of disease on untreated plants)
6 | CO/C=C(/C(=O)OC)c1ccccc1COc1cccc(Oc2ccccc2Cl)c1 [182 (Table I)] | 4 | 4 | 4 | 4 | 3 (trace −5% of disease on untreated plants) | 4 | 4
7 | CO/C=C(/C(=O)OC)c1ccccc1COc1ccc(F)cc1 [156 (Table I)] | 4 | 0 (60-100% of disease on untreated plants) | 4 | 4 | 4 | 4 | 4
8 | CO/C=C(/C(=O)OC)c1ccccc1COc1cc(Cl)cc(OC)c1 [167 (Table I)] | 3 (trace −5% of disease on untreated plants) | 4 | 4 | 4 | 4 | 4 | 4
9 | CO/C=C(/C(=O)OC)c1ccccc1COc1cc(Cl)cc(Cl)c1 [162 (Table I)] | 4 | 2 (6-25% of disease on untreated plants) | 3 (trace −5% of disease on untreated plants) | 4 | 4 | 4 | 4
10 | CO/C=C(/C(=O)OC)c1ccccc1COc1cc(Cl)ccc1Cl [158 (Table I)] | 4 | 4 | 3 (trace −5% of disease on untreated plants) | 4 | 4 | 4 | 4
11 | CO/C=C(/C(=O)OC)c1ccccc1COc1cccc(/C=N/c2ccccc2)c1 [179 (Table I)] | 0 (60-100% of disease on untreated plants) | 2 (6-25% of disease on untreated plants) | 4 | 3 (trace −5% of disease on untreated plants) | 0 (60-100% of disease on untreated plants) | 4 | 0 (60-100% of disease on untreated plants)
12 | CCN(CC)c1cccc(OCc2ccccc2/C(=C\OC)C(=O)OC)c1 [169 (Table I)] | 4 | 0 (60-100% of disease on untreated plants) | 4 | 3 (trace −5% of disease on untreated plants) | 4 | 4 | 1 (26-59% of disease on untreated plants)
13 | CCOc1cc(OCc2ccccc2/C(=C\OC)C(=O)OC)ccc1OC [170 (Table I)] | 4 | 3 (trace −5% of disease on untreated plants) | 4 | 0 (60-100% of disease on untreated plants) | 4 | 4 | 4
14 | COC=C(C(=O)OC)c1ccccc1C(C)Sc1ccccc1 (stereo not shown) [2 (Table II)] | 0 (60-100% of disease on untreated plants) | 4 | 4 | 4 | 4 | 4 | 4
15 | CO/C=C(/C(=O)OC)c1ccccc1COc1cccc(I)c1 [25 (Table I)] | 4 | 2 (6-25% of disease on untreated plants) | 3 (trace −5% of disease on untreated plants) | 4 | 4 | 4 | 4
16 | CO/C=C(/C(=O)OC)c1ccccc1COc1cccc(OC)c1 [160 (Table I)] | 3 (trace −5% of disease on untreated plants) | 3 (trace −5% of disease on untreated plants) | 4 | 4 | 4 | 4 | 4
17 | CO/C=C(/C(=O)OC)c1ccccc1COc1cccc(Br)n1 [176 (Table I)] | – | 4 | 4 | 4 | 4 | 4 | 4

Reference: patent publication US6653258B1 (priority 1987, dated 2003)
